Results reported in patent US20170190705A1, “Compositions and Methods for Inhibiting BMP” (THE BRIGHAM AND WOMAN'S HOSPITAL, INC., priority 2014, published 2017).

How the values were obtained:
JAK3 = target: T1, JAK3 (Homo sapiens, UniProt P52333); assay: Kinome profiling JAK3; assay type: biochemical; settings: read-out: Inhibitory activity JAK3; for inhibition at 0.1 µM: 100 nM
T1 sequence (P52333 1-1124): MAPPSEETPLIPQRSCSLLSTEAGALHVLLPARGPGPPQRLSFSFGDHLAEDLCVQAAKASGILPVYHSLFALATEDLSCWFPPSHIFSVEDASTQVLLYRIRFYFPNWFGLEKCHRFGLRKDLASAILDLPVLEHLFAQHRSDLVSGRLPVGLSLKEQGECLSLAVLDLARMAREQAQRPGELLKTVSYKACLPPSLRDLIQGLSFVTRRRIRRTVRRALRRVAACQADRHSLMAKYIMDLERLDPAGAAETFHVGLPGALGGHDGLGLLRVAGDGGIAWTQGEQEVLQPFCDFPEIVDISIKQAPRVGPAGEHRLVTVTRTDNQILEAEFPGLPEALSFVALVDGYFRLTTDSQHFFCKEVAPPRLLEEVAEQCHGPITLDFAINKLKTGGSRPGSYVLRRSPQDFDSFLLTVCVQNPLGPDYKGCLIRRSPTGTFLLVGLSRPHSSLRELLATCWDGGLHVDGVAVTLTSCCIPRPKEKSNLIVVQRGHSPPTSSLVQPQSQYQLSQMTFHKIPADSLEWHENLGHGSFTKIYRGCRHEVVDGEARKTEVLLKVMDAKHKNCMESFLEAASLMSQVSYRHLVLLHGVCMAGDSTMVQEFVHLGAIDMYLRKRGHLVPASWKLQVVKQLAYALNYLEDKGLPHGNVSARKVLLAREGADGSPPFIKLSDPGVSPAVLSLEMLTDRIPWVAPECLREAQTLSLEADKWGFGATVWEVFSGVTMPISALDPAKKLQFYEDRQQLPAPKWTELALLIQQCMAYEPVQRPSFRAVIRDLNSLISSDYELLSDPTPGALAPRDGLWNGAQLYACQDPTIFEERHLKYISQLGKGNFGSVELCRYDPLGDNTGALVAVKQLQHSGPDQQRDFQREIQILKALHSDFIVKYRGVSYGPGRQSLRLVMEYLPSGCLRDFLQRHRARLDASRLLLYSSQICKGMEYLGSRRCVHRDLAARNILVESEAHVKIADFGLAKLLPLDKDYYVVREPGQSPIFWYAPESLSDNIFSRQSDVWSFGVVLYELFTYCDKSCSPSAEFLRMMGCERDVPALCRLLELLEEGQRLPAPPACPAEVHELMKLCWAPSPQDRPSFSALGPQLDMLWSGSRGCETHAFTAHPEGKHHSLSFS
Protocol: (§1) . The kinome-wide selectivity was determined following the methods previously reported by Mohedas et al., ACS Chem Biol 2013, 8, 1291-1302 and Sanvitale et al., PLoS One 2013, 8, e62721.

caALK3 = target: T2, caALK3 (Homo sapiens, UniProt P36894, Q233D); assay: Luciferase reporter assay constitutively active ALK3; settings: read-out: Cell Based Assay caALK3 IC50
T2 construct: expressed in transfected cells; host or cells: C2C12 BRE-Luc cells infected with adenovirus (MOI 100)
Source text: C2Cl2 […] cells stably transfected with BMP responsive element from the Id promoter fused to luciferase reporter gene (BRE-Luc) were generously provided by Dr. Peter ten Dijke (Leiden University Medical Center, NL) following the methods described by Zilberberg et al., BMC cell biology 2007, 8, 41-50. Human embryonic kidney 293T cells stably transfected with the TGF-β responsive element from the PAI-1 promoter fused to luciferase reporter gene (CAGA-Luc) were generously provided by Dr. Howard Weiner (Brigham and Women's Hospital, Boston, Mass.) following the methods described by Oida et al., PloS one 2011, 6, e18365. C2Cl2 Bre-Luc and 293T CAGA-Luc cells were seeded in DMEM supplemented with 2% FBS at 20,000 cells per well in tissue culture treated 96-well plates (Costar® 3610; Corning). The cells were incubated for 1 h (37° C. and 10% CO2) and allowed to settle and attach. Compounds of interest or DMSO were diluted in DMEM and added at final compound concentrations of 1 nM to 10 μM. Cells were then incubated for 30 min. Adenovirus expressing constitutively active BMP and TGF-β type I receptors (Ad.caALK1-5), generously provided by Dr. Akiko Hata (University of to California at San Francisco), were added to achieve a multiplicity of infection (MOI) of 100. Plates were incubated overnight at 37° C. Cell viability was assayed with an MIT (3-(4,5-dimethylthiazol-2-yl)-2,5-diphenyl tetrazolium bromide) colorimetric assay (Promega) per the manufacturer's instructions. Media was discarded, and firefly luciferase activity was measured (Promega) according to manufacturer's protocol. Light output was measured using a Spectramax L luminometer (Molecular Devices) with an integration time of one second per well. Data was normalized to 100% of incremental BRE-Luc activity due to adenoviruses specifying caALK1, 2, or 3, or the incremental CAGA-Luc activity due to adenoviruses specifying caALK4 or 5.

PI3-K-δ = PI3-K-δ (Homo sapiens, UniProt O00329); assay: Kinome profiling PI3-K-δ; assay type: biochemical; settings: read-out: Inhibitory activity PI3-K-δ; for inhibition at 0.1 µM: 100 nM
Protocol: as §1

Sequence of PI3-K-δ (O00329 whole entry): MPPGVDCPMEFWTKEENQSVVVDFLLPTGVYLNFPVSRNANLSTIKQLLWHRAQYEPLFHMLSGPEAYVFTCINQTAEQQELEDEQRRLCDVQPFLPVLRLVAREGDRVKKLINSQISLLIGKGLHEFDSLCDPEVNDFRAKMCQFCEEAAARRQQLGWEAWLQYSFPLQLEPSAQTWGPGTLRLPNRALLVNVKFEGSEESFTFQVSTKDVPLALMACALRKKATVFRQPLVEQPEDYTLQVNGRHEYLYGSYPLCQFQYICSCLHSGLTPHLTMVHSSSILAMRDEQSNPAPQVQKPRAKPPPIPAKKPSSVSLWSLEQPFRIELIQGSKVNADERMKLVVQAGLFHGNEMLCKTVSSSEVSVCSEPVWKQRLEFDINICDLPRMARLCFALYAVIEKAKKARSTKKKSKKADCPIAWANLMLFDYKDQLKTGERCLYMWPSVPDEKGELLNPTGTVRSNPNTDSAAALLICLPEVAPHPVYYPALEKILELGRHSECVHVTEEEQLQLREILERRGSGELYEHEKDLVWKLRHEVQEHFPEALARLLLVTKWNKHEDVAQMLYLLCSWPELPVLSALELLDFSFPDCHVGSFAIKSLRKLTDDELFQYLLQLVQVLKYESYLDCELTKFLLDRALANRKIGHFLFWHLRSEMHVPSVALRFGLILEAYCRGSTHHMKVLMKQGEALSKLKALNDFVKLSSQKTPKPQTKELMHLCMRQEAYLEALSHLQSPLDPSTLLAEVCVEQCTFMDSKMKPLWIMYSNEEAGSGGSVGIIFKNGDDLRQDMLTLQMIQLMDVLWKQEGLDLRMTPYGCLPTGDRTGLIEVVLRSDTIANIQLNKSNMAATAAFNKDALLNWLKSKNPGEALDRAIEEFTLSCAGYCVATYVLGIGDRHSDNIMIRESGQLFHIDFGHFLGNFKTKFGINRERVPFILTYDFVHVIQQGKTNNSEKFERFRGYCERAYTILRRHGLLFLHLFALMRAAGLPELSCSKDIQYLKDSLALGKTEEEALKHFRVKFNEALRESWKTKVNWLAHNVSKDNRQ
Sequence of PI3-K-δ (P27986 whole entry partner): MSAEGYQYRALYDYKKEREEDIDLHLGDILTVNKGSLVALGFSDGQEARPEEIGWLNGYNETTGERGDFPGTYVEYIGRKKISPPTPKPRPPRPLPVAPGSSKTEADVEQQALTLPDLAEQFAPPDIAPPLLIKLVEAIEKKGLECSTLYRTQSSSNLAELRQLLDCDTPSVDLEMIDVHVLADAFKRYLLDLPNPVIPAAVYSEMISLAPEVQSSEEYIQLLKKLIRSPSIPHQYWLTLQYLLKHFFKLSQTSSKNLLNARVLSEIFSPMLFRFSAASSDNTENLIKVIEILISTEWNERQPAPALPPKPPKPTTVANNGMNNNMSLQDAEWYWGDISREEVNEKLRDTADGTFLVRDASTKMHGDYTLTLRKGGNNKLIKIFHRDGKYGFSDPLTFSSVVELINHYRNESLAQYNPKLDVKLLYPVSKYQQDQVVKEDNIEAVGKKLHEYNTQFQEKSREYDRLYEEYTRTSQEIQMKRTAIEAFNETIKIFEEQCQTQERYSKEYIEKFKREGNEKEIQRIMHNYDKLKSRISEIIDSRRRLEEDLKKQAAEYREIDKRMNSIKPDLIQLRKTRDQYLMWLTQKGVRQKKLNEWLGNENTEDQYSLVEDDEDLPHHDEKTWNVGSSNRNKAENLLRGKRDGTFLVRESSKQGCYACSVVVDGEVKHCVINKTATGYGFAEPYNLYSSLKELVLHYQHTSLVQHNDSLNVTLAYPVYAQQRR
T2 sequence (P36894 24-532 Q233D): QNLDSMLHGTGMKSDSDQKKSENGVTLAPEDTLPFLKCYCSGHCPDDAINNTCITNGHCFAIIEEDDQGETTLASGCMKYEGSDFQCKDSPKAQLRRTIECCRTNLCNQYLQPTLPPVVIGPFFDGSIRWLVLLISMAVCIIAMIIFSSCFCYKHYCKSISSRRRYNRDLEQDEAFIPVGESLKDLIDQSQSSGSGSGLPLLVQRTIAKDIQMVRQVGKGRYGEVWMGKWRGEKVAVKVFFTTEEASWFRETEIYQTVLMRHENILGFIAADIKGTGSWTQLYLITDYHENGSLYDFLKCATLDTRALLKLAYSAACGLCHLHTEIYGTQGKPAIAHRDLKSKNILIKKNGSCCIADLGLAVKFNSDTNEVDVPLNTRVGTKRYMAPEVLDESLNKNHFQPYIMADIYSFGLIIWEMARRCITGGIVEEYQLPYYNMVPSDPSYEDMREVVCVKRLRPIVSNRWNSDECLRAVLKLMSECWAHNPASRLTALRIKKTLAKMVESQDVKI

Row | SMILES | inhibition at 0.1 µM (JAK3) [%] | inhibition at 1 µM (JAK3) [%] | IC50 (caALK3) [nM] | inhibition at 0.1 µM (PI3-K-δ) [%] | inhibition at 1 µM (PI3-K-δ) [%]
1 | COc1cc(-c2cc(-c3ccc(N4CCNCC4)cc3)cnc2C)cc(OC)c1OC [Compound 10, 1-(4-(6-methyl-5-(3,4,5-trimethoxyphenyl)pyridin-3-yl)phenyl)piperazine] | 3 | 3 | 382 | 8 | 7
2 | COc1cc(-c2cc(-c3ccc(N4CCNCC4)cc3)cnc2N)cc(OC)c1OC [Compound 15, 5-(4-(piperazin-1-yl)phenyl)-3-(3,4,5-trimethoxyphenyl)pyridin-2-amine] | 0 | 3 | 8 | 3 | 7
